# Measured values: ChEMBL document CHEMBL1201862, “PubChem BioAssay data set” (2004)
# Calls of active or inactive are those of the source. Bridge positions count the residues as written; N and C are the ends. Square brackets hold non-standard residues; d marks the D form. Peptide text beside a SMILES is read from it. * marks the point of attachment. X1 = CCC(C)C(N)C1=NC(C(=O)*)CS1; dOrn = NCCC[C@@H](N)C(=O)O
# Assays:
# [1] = intracellular Trypanosoma cruzi inhibitors in host cells – cell-based, plate reader, cherry-pick samples, set 3, dose response (AID 651818); format: functional;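 further: compounds incubated with infected cells for about four days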
# [2] = target: T1, DNA repair and recombination protein RAD54-like (Homo sapiens, UniProt Q92698); test: inhibitors of human RAD54 branch migration, confirmation, biochemical, fluorescence, cherry-picked samples, dose series (AID 651657); format: functional
# T1 sequence (Q92698 whole entry): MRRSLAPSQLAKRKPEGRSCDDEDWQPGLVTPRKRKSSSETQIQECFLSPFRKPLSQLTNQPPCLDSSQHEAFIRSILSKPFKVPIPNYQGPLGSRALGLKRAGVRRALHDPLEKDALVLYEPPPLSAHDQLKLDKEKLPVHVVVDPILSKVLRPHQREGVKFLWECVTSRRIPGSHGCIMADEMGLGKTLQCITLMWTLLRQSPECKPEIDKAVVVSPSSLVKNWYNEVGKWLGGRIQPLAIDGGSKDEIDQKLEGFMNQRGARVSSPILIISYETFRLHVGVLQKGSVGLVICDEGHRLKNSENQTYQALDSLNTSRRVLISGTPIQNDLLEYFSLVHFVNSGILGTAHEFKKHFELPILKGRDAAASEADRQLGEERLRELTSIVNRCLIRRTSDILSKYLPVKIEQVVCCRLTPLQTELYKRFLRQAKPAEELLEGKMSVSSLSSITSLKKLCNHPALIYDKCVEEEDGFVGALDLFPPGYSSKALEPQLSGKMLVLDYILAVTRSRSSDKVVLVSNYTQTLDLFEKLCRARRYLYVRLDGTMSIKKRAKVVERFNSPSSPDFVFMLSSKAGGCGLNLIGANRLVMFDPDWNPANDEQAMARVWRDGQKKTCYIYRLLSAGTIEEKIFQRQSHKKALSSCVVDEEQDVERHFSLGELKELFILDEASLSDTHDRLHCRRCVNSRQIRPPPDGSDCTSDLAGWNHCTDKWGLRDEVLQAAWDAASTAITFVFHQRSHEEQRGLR
# [3] = CRF-BP/CRF-R2 complex antagonists, dose response, cell-based, uHTS hits, 384-well (AID 651639); format: functional, Homo sapiens; settings: read-out: IC50_Mean
# [4] = target: T2, Corticotropin-releasing factor receptor 2/Corticotropin-releasing factor-binding protein (Homo sapiens, UniProt P24387+Q13324); test: activators of CRF receptor 2 with binding protein – uHTS hits, confirmation (AID 602473); format: functional; settings: read-out: EC50_Mean
# T2 sequence (Q13324 whole entry): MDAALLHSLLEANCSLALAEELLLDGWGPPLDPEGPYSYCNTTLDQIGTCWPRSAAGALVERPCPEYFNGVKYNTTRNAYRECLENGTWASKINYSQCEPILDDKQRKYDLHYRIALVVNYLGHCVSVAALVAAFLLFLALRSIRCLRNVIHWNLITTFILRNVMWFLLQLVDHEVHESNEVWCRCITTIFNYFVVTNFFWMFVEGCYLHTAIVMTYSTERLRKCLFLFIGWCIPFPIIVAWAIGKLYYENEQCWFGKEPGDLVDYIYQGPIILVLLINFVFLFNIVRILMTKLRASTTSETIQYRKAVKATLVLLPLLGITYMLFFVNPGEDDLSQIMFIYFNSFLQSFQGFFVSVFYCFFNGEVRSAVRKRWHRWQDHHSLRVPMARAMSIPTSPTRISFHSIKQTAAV
# T2 sequence (P24387 whole entry): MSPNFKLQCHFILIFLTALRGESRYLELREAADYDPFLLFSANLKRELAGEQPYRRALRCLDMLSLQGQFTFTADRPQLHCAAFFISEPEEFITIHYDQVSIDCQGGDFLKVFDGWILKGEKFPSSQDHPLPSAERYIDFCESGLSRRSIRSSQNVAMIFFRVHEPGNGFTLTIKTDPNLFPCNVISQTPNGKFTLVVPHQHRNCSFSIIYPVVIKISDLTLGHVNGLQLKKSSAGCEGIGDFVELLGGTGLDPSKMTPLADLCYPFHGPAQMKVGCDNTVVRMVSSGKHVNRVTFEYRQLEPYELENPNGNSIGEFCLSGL
# [5] = microbe, parasite or virus in culture; format: functional; settings: Mycobacterium tuberculosis
# [6] = target: T2, Corticotropin-releasing factor receptor 2/Corticotropin-releasing factor-binding protein; test: Dose Response confirmation of uHTS hits for small molecule antagonists of the CRF-binding protein and CRF-R2 receptor complex.; format: functional; settings: read-out: IC50_Mean
# [7] = target: Voltage-gated inwardly rectifying potassium channel KCNH2 (Homo sapiens, UniProt Q12809); settings: Potency;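 further: confirmatory quantitative high-throughput screen measuring inhibition of hERG channel activity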
# [8] = target: Cytochrome P450 3A4 (Homo sapiens, UniProt P08684); settings: Potency;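 further: confirmatory qHTS run detecting inhibitors and substrates of CYP3A4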
# [9] = inhibitors of intracellular T. cruzi replication, confirmation, NIH3T3 host cells, beta-gal luminescence (AID 2044); format: functional, cell-based;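 further: intracellular parasites grown in NIH/3T3 mouse fibroblasts as host cells; luminescent beta-galactosidase reporter signal from transgenic T. cruzi replicating inside host cells; inhibitors lower the luminescence signal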
# [10] = target: Protein Wnt-3a (Mus musculus, UniProt P27467); test: Wnt3a-driven reporter signaling inhibition, dose response, selectivity assay for Gli-SUFU antagonist project, Wnt-LIGHT cells, luminescence (AID 651570); format: functional; settings: read-out: IC50_Mean;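 further: Wnt-LIGHT reporter cells stimulated with conditioned medium from Wnt3a-producing cells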
# [11] = Shn3 3'UTR reporter inhibitors, dose response, cell-based, Clone20 osteoblasts, firefly luciferase, cherry-picked (AID 624132); format: functional;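 further: firefly luciferase luminescence from reporter carrying the Shn3 3'UTR in osteoblasts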
# [12] = HepG2 cell cytotoxicity, dose response, cytotoxicity control for Shn3 inhibitor project, CellTiter-Glo, cherry-picked (AID 624134); format: functional, cell-based
# [13] = control 3'UTR Renilla luciferase suppression, dose response, counter-screen for Shn3 inhibitor project, cell-based, Clone20-Shn3RL, cherry-picked (AID 624133); format: functional
# [14] = target: DNA dC->dU-editing enzyme APOBEC-3G (Homo sapiens, UniProt Q9HC16); test: APOBEC3G deaminase inhibitors, SAR follow-up, biochemical, fluorescence, single-stranded DNA substrate (AID 602136); format: functional; settings: read-out: IC50_Mean
# [15] = target: DNA dC->dU-editing enzyme APOBEC-3A (Homo sapiens, UniProt P31941); test: SAR analysis of small molecule inhibitors of APOBEC3A DNA Deaminase via a fluorescence-based single-stranded DNA deaminase assay.; format: functional; settings: read-out: IC50_Mean
# [16] = target: T3, Endoribonuclease toxin MazF (Escherichia coli K-12, UniProt P0AE70); test: fluorescent RNA oligo signal without MazF, dose response, counter-screen for MazEF activator project, biochemical, fluorescence, single-stranded RNase substrate (AID 588502); format: functional
# T3 sequence (P0AE70 whole entry): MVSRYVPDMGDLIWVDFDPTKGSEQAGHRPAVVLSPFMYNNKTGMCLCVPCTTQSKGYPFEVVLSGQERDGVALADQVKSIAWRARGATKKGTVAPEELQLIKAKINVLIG
# [17] = target: T3, Endoribonuclease toxin MazF; test: MazF toxin RNase activators, dose response, biochemical, fluorescence, single-stranded RNA substrate, uHTS hits (AID 588481); format: functional
# [18] = Luminescence Cell-Based Dose Confirmation HTS to Identify Inhibitors of Platelet Dense Granule Release. [Related pubchem assays: 1663 (Primary HTS), 1678 (Summary of Project)]; format: functional
# [19] = target: Luciferin 4-monooxygenase (Photinus pyralis, UniProt P08659); test: firefly luciferase enzyme inhibitors, dose response, biochemical, luminescence (AID 1891)
# [20] = target: T4, Zinc finger protein mex-5 (Caenorhabditis elegans, UniProt Q9XUB2); test: MEX-5/TCR-2 RNA interaction inhibitors, dose response, biochemical, C. elegans, fluorescence polarization (AID 1960)
# T4 sequence (Q9XUB2 whole entry): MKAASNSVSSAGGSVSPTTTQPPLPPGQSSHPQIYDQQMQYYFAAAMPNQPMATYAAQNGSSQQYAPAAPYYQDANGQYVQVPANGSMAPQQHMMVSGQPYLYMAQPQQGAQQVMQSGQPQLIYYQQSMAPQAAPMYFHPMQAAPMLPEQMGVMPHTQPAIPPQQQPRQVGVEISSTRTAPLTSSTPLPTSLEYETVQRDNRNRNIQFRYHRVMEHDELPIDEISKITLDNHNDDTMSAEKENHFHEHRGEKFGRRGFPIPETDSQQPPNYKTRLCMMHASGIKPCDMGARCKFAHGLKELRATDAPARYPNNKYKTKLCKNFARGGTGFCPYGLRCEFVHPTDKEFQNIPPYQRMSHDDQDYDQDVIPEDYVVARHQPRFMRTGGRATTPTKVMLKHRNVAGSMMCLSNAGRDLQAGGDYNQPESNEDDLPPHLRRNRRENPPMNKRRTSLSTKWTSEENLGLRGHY
# [21] = target: Glucose-6-phosphate 1-dehydrogenase (Homo sapiens, UniProt P11413); test: human G6PD enzyme inhibitors, dose response, selectivity assay for P. falciparum G6PD inhibitor project, biochemical, fluorescence (AID 504792); format: functional
# [22] = target: T5, RNA-binding protein pos-1 (Caenorhabditis elegans, UniProt G5EF15); test: inhibitors of POS-1/mex-3 RNA binding, dose response, biochemical, fluorescence polarization (AID 1964);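 further: purified POS-1 fused to maltose binding protein made in E. coli; potency of compounds blocking POS-1 binding to fluorescent RNA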
# T5 sequence (G5EF15 whole entry): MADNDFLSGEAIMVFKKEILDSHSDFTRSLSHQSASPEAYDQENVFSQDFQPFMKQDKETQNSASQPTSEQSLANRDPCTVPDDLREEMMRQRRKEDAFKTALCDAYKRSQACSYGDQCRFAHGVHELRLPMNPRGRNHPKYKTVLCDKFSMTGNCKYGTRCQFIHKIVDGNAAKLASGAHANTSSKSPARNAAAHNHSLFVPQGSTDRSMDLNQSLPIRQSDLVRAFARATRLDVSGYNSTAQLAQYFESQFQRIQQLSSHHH
# [23] = target: T6, Polyadenylate-binding protein 1 (Homo sapiens, UniProt P11940); test: PABP1 MLLE–PAM2 binding inhibitor potency, dose response, biochemical, fluorescence polarization, FITC-PAM2 peptide (AID 602259); format: functional; settings: read-out: IC50_Mean
# [24] = target: T6, Polyadenylate-binding protein 1; test: PABP1 MLLE–PAM2 interaction inhibitors, dose response, miRNA deadenylation inhibitor project, biochemical, fluorescence polarization, Cy5-PAM2 peptide, secondary (AID 602260); format: functional; settings: read-out: IC50_Mean
# Sequence of DNA dC->dU-editing enzyme APOBEC-3G (Q9HC16 whole entry): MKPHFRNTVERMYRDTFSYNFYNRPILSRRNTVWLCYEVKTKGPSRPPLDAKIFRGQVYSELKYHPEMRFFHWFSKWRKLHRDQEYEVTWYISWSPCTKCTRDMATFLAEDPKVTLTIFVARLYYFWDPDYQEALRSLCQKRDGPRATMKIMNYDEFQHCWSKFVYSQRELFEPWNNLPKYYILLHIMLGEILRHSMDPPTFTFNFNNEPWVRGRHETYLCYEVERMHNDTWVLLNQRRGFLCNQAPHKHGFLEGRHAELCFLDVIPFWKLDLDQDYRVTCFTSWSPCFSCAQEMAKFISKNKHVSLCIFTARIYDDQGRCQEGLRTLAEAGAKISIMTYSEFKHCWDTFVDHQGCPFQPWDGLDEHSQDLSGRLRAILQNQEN
# Sequence of DNA dC->dU-editing enzyme APOBEC-3A (P31941 whole entry): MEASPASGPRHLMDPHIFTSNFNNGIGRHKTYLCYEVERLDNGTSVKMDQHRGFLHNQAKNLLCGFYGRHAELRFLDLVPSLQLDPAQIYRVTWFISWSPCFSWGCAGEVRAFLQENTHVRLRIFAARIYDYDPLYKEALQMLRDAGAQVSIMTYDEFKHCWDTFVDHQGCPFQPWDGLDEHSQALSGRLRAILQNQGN
# Sequence of Protein Wnt-3a (P27467 whole entry): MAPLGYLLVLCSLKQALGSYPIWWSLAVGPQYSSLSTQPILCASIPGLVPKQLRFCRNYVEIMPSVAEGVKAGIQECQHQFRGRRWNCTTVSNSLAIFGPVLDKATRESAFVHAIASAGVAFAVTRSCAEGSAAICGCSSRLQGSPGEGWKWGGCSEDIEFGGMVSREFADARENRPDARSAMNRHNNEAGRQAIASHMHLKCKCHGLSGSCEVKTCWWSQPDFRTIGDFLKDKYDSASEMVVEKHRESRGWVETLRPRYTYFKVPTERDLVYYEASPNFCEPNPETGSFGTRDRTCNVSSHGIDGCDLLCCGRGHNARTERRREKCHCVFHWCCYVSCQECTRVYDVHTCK
# Sequence of Voltage-gated inwardly rectifying potassium channel KCNH2 (Q12809 whole entry): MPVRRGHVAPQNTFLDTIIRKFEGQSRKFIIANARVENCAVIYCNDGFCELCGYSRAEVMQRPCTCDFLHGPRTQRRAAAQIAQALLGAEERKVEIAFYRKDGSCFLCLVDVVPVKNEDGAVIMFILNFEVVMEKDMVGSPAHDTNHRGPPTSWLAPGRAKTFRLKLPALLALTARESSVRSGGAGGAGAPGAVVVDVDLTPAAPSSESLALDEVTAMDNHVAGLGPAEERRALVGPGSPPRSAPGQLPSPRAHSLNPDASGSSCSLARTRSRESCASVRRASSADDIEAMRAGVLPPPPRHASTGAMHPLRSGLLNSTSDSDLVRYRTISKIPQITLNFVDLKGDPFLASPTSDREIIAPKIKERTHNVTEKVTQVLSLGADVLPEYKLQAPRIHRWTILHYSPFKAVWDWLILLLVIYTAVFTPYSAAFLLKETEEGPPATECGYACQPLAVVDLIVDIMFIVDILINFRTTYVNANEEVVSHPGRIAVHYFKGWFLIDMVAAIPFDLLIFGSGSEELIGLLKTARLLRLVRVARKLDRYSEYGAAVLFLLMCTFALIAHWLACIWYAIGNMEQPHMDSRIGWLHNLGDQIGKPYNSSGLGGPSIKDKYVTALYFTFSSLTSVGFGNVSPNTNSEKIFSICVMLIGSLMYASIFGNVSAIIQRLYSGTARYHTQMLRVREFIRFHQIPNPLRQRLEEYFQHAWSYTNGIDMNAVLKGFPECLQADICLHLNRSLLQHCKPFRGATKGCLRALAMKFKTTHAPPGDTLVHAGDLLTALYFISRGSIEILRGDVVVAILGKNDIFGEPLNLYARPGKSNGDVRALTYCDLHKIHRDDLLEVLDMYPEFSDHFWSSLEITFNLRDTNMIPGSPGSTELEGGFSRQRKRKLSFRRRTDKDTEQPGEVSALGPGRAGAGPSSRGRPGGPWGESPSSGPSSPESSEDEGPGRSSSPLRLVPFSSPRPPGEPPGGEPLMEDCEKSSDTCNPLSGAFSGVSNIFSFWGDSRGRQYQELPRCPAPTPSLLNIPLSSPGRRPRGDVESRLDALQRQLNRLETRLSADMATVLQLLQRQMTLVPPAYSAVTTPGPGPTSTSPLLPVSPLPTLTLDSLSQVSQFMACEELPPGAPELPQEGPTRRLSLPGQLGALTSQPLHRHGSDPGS
# T6 sequence (P11940 whole entry): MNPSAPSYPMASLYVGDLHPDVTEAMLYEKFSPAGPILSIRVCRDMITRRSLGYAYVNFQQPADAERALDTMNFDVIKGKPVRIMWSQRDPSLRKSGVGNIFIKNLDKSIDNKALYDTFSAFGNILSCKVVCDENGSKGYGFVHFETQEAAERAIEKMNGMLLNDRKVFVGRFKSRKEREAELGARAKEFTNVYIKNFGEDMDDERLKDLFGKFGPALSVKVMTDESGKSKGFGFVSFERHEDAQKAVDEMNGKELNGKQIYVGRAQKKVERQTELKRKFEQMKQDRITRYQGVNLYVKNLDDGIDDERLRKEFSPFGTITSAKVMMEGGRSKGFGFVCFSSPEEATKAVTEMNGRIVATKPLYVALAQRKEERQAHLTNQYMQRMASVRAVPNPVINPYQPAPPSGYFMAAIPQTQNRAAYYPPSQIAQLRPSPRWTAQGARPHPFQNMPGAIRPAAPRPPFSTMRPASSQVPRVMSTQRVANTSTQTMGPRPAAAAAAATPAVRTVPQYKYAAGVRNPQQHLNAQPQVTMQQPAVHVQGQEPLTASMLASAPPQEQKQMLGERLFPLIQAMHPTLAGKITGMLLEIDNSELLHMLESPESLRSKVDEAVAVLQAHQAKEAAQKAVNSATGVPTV
# Sequence of Luciferin 4-monooxygenase (P08659 whole entry): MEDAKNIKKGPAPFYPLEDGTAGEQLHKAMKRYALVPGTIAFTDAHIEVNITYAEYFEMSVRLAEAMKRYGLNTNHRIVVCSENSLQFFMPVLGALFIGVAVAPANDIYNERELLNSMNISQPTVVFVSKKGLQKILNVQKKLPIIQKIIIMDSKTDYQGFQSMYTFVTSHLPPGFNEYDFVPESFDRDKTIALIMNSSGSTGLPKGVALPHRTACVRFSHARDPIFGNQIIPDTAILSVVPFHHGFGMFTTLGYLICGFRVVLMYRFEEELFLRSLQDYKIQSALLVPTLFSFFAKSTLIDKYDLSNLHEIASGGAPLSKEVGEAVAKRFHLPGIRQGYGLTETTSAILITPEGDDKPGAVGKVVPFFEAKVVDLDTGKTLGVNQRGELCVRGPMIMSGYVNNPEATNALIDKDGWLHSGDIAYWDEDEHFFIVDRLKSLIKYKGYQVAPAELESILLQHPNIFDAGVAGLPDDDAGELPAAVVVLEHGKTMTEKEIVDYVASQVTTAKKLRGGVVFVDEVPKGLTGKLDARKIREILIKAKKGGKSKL
# Sequence of Cytochrome P450 3A4 (P08684 whole entry): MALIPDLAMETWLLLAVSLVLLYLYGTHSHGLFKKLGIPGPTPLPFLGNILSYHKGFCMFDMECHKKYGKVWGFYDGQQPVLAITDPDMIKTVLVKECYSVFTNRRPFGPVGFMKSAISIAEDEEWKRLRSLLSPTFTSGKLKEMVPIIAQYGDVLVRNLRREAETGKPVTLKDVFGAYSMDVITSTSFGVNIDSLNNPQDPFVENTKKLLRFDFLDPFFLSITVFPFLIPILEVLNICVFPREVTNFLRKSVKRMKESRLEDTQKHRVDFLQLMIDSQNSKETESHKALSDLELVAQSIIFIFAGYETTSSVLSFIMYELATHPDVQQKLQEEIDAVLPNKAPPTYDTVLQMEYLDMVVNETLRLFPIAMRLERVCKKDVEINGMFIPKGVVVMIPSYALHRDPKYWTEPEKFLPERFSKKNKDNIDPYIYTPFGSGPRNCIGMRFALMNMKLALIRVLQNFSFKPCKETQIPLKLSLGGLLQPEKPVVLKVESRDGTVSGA
# Sequence of Glucose-6-phosphate 1-dehydrogenase (P11413 whole entry, the tested form may be a part): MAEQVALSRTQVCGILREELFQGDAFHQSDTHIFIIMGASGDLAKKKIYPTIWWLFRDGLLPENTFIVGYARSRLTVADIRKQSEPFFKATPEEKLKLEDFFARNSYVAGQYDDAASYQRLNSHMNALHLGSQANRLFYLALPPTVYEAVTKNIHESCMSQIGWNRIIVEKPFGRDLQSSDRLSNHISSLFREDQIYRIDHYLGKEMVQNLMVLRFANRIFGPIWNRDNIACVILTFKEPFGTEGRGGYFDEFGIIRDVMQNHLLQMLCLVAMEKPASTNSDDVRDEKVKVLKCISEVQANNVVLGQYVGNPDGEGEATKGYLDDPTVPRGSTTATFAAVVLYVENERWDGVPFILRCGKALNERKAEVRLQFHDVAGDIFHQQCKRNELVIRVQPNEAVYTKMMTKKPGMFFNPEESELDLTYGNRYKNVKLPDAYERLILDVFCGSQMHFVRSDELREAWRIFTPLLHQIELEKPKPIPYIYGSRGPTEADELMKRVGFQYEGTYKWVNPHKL
smiles,measurement,setting,value
COc1ccc(NC(=O)Nc2cccc3c2O[C@@H](CN(C)Cc2ccc(C(=O)Nc4ccccc4N)cc2)[C@H](C)CN([C@@H](C)CO)C3=O)cc1,AC50,[1],0.535 µM (active)
Cc1ccc(S(=O)(=O)N(C)C[C@H]2Oc3ccc(NS(=O)(=O)c4cccs4)cc3CC(=O)N([C@H](C)CO)C[C@H]2C)cc1,AC50,[1],2.05 µM (active)
CN1CCN(CCNC(=O)c2cc3c(=O)n(C)c4ccccc4c3n2C)CC1,AC50,[2],35.3 µM (active)
COc1ccc(CCNc2nc(N3CCCCC3)nc(N3CCCCC3)n2)cc1OC,IC50,[3],> 20 µM (inactive)
same,EC50,[4],> 53 µM (inactive)
same,CC50,[5],> 40 µM (active)
same,IC50,[6],7.8 µM (active)
CCCN(CCC)c1c([N+](=O)[O-])cc(C(F)(F)F)cc1[N+](=O)[O-] [TRIFLURALIN],AC50,[7],14.1 µM (inconclusive)
same,AC50,[8],15.8 µM (inconclusive)
O=C(c1cc2nc(-c3ccc(F)cc3)cc(C(F)(F)F)n2n1)N1CCCCC1c1cccnc1 (centres undefined),EC50,[9],0.164 µM (active)
same,IC50,[10],3.57 µM (active)
same,CC50,[5],> 40 µM (active)
same,AC50,[11],2.37 µM (active)
same,AC50,[12],5.1 µM (active)
same,AC50,[13],2.12 µM (active)
CCc1ccc(Nc2nc(Nc3cccc(OC)c3)nc(N3CCOCC3)n2)cc1,IC50,[14],47.7 µM (inactive)
same,IC50,[15],> 99 µM (inactive)
FC(F)Oc1ccc(-c2cn3c([n+]2-c2ccccc2)CCCCC3)cc1,IC50,[10],3.83 µM (active)
CCC(C)C(N)C1=NC(C(=O)N[C@@H](CC(C)C)C(=O)N[C@H](CCC(=O)O)C(=O)N[C@H](C(=O)N[C@H]2CCCCNC(=O)[C@H](CC(N)=O)NC(=O)[C@@H](CC(=O)O)NC(=O)[C@H](Cc3c[nH]cn3)NC(=O)[C@@H](Cc3ccccc3)NC(=O)[C@H]([C@@H](C)CC)NC(=O)[C@@H](CCCN)NC2=O)[C@@H](C)CC)CS1 (some centres undefined) (X1-L[dE]IK[dOrn]I[dF]H[dD]N; lactam 4-C),EC50,[16],4.71 µM (active)
same,EC50,[17],30.8 µM (inactive)
COc1ccc(S(=O)(=O)Nc2cccc3c2O[C@H](CN(C)Cc2ccc(C(=O)Nc4ccccc4N)cc2)[C@@H](C)CN([C@H](C)CO)C3=O)cc1,AC50,[1],4.11 µM (active)
COc1cc(CNC(=O)CCCCCCC(C)C)ccc1O [DIHYDROCAPSAICIN],AC50,[7],35.5 µM (inconclusive)
Cc1ccc(CC(=O)Nc2nnc(-c3ccncc3)s2)cc1,IC50,[14],> 99 µM (inactive)
same,IC50,[15],> 99 µM (inactive)
O=C(N=CNOCc1ccc(Cl)cc1Cl)NOCc1c(Cl)cccc1Cl,EC50,[16],> 99 µM (inactive)
same,EC50,[18],> 112 µM (not active)
same,EC50,[19],> 112 µM (not active)
same,EC50,[17],> 99 µM (inactive)
O=c1[nH]nc(CNc2ccc(O)cc2)c2ccccc12,EC50,[20],15.3 µM (inconclusive)
same,EC50,[16],> 99 µM (inactive)
same,IC50,[21],> 80 µM (inactive)
same,EC50,[17],> 99 µM (inactive)
same,EC50,[22],11.8 µM (active)
CCC(C(=O)Nc1nnc(SCCOC)s1)c1ccccc1 (centres undefined),IC50,[14],> 99 µM (inactive)
same,IC50,[15],> 99 µM (inactive)
COc1ccc(CCNC(=O)c2cc3c(=O)n4cccc(C)c4nc3n(CCCN3CCOCC3)c2=N)cc1,EC50,[20],192 µM (active)
same,AC50,[2],16.2 µM (active)
same,EC50,[22],66.4 µM (active)
CCOc1ccc(/N=C/C=C(/O)c2ccc(OC)cc2)c([N+](=O)[O-])c1,IC50,[23],> 66 µM (inactive)
same,EC50,[16],6.29 µM (active)
same,IC50,[24],> 66 µM (inactive)
same,EC50,[17],> 99 µM (inactive)
Cc1nn(-c2cccc(Cl)c2)c2nc(C(F)(F)F)nc(O)c12,IC50,[3],17.8 µM (active)
CC(=O)Nc1ccc(S(=O)(=O)N(Cc2ccccc2)C(C)C)cc1,IC50,[10],22.1 µM (inactive)
